Here are results for five compounds from patent publication US8309058B2, “Method for obtaining highly luminescent lanthanide complexes” (Commissariat a l'Energie Atomique, priority 2005, dated 2012).

Data set [1] is described as follows: potentiometric titration: stability of the Ca(II) complex. Type of data set: physicochemical. The method, then:
(§1) The solutions of Ca(II) could be prepared by dissolution of CaCI2 in water. The exact concentration of the ion Ca^2+ can be determined by colorimetric titration at a pH 12.5 using as a reference a solution of […] calgonite as an indicator. 20 mL of a solution of […] (3,10-^4 M), acidified (pH 2.5) 1:1 Ln:mixture of ligands ([L] 3.10-^4 M), acidified (pH 2.5) 1:1 Ca:mixture of ligands ([L] 7.10-^5M) are titrated in a cell with a thermostat (25.0° C.+/-0.1° C.) under Argon after addition of a solution of KOH 0.1 M. The ionic load was determined with KCl (μ=00.1 M). The titrations have been conducted with a Metrohm 751 GPD Titrino potentiometer fitted with a glass pH electrode. The electrode system was calibrated before each measurement. The electromotive load is given by the equation E=E°+sp[H^+] wherein E° and s are determined by titration of a known amount de HCl with 0.1 M KOH at μ=0.1 M (KCl), using the zone of the acid for the titration. […] More than 50 data points have been collected for each experiment.

For data set [2] the following is noted: cited from earlier work.
The conditions of data set [3]: cited from earlier work. The source holds these as a separate data set.
The nature of data set [4]: potentiometric titration: de-protonation constants of the ligand. In kind it is physicochemical. As to conditions: 25.0° C., μ=0.1 M KCl, listed as H6tpaen. The source says: Besides, five de-protonation constants [pKa1=2.8 (1), pKa22=3.2 (1), pKa3=3.9 (2), pKa4=5.1 (1) and pKa5=7.8 (1)] may be determined for the ligand H6tpaen by potentiometric titration as well the stability constants of the corresponding complexes of Eu^III and of CaII [log βEuL=15.3(3) for the complex of Eu^III and log βCaL=8.5 (5)].
For potentiometric titration, the solutions of the complex of Eu(III) may be prepared by dissolution of a determined amount of EuCI3.6H2O in water. The de-protonation constants of H6tpaen are given by Kai=[H6-iL]^2-1/[H5−iL]^1-i[H]^+, and as already mentioned previously, the values obtained are pKa1=2.8(1), pKa2=3.2(1), pKa3=3.9(2), pKa44=5.1(1) and pKa5=7.8(1).
The solutions of Ca(II) could be prepared by dissolution of CaCI2 in water. The exact concentration of the ion Ca^2+ can be determined by colorimetric titration at a pH 12.5 using as a reference a solution of H2Na2edta and calgonite as an indicator. 20 mL of a solution of H4tpaen (3,10−^4 M), acidified (pH˜2.5) 1:1 Ln:mixture of ligands ([L] 3.10−^4 M), acidified (pH˜2.5) 1:1 Ca:mixture of ligands ([L] 7.10−^5M) are titrated in a cell with a thermostat (25.0° C.+/−0.1° C.) under Argon after addition of a solution of KOH 0.1 M.
The ionic load was determined with KCl (μ=00.1 M). The titrations have been conducted with a Metrohm 751 GPD Titrino potentiometer fitted with a glass pH electrode. The electrode system was calibrated before each measurement.
The electromotive load is given by the equation E=E°+sp[H^+] wherein E° and s are determined by titration of a known amount de HCl with 0.1 M KOH at μ=0.1 M (KCl), using the zone of the acid for the titration. The value used for the ionic product of water was pKw=13.77. More than 50 data points have been collected for each experiment.

Data set [5] is described as follows: potentiometric titration: stability of the Eu(III) complex. Type of data set: physicochemical.
Source text: as §1, with “For potentiometric titration, the solutions of the complex of Eu(III) may be prepared by dissolution of a determined amount of EuCI3.6H2O in water. […] The exact concentration of the ion Eu^3+ could be determined by colorimetric titration in an acetate buffer (pH=4.5), using as a reference a solution of […] orange xylenol as an indicator. The solutions” for “The solutions”

Data set [6] is described as follows: stability of the Gd complex (pGd). Type of data set: physicochemical. As to conditions: pH 7.4, [M]total=1 μM, [ligand]total=10 μM.
A short description of data set [7]: absorption / excitation spectra. In kind it is physicochemical. The source says:
(full line) and [Tb(tpaen)] (dotted line) after excitation of the ligand at 274 nm.
An efficient energy transfer from the ligand to the metal is put forward by the resemblance between the excitation and absorption spectra of the Europium and Terbium complexes.

[8] abbreviates: pH 7.4, [M]total=1 μM, [ligand]total=10 μM.

Like-named read-outs stand apart in the source and are kept apart here.

Consider `O=C([O-])c1cccc(CN(CCN(Cc2cccc(C(=O)O)n2)Cc2cccc(C(=O)O)n2)Cc2cccc(C(=O)[O-])n2)n1.[Ca+2]` [Catpaen], for which the “stability constant log βCaL” value in data set [1] (potentiometric titration, 25.0° C., μ=0.1 M KCl) is recorded as 8.5 (5).
Consider `O=C(O)CN(CCN(CC(=O)O)CC(=O)O)CC(=O)O` [EDTA, tetra acetic diamine ethylene acid], for which the “pEu, comparison value for EDTA” value in data set [2] is 14.0.
For `O=C(O)c1ccccc1C1=c2cc3c4c(c2Oc2c1cc1c5c2CCCN5CCC1)CCC[N+]=4CCC3.[Cl-]` [rhodamine 101], the “Qabs of the standard” value in data set [3] (ethanol) is on record as 100%.
With `O=C(O)c1cccc(CN(CCN(Cc2cccc(C(=O)O)n2)Cc2cccc(C(=O)O)n2)Cc2cccc(C(=O)O)n2)n1` [tpaen, N,N,N′,N′-tetrakis[(6-carboxypyridine-2-yle)methyl]-ethylene diamine], in data set [4], the “de-protonation constant pKa1” value is 2.8 (1), the “de-protonation constant pKa2” value is on record as 3.2 (1), the “de-protonation constant pKa3” value was 3.9 (2) and the “de-protonation constant pKa4” value is listed as 5.1 (1). Moreover, the “de-protonation constant pKa5” value in data set [4] is given as 7.8 (1). Moreover, in data set [5] (from pEu versus pCa), the “selectivity for Europium with respect to calcium” value is recorded as “good selectivity regarding Europium with respect to calcium”. In data set [5] (setting [8]), the “pEu (−log [M]free)” value is 15.7. Besides, in data set [1] (setting [8]), the “pCa (−log [M]free)” value was determined as 8.5. For the same compound, the “pGd (−log [M]free)” value in data set [6] was found to be 15.0. Moreover, in data set [7], the λexc turned out to be 270 nm. The compound further gave a ε in data set [7] (at λexc) of 15800 M⁻¹ cm⁻¹.
For the compound cresyl violet, the “Qabs of the standard” value in data set [3] (methanol) is given as 54%.
